Data on 18 compounds can be found in patent US10925876B2, “Methods for using triazolo-pyrazinyl soluble guanylate cyclase activators in fibrotic disorders” (Merck Sharp & Dohme Corp., priority 2016, dated 2021).

Test [1] deals with Spontaneously hypertensive rats (SHR). Kind of test: Acute Efficacy in Spontaneously Hypertensive Rats (SHR), telemetry blood pressure. In kind it is in vivo, rat. The settings on record: P.O. 0.3 mpk, single oral gavage. An excerpt:
Spontaneously hypertensive rats (SHR, male, Charles River) were implanted with DSI TA11PA-C40 telemetry device (Data Sciences, Inc., St. Paul, Minn.) under isoflurane or ketamine/metomidine anesthesia. The telemetry unit catheter was inserted into the descending aorta via the femoral artery and the telemetry device was implanted subcutaneously in the left flank area. Animals were allowed to recover from surgery for 14 days before the start of any studies. Blood pressure, heart rate, and activity signals from conscious, freely moving rats were recorded continuously for 30 seconds every 10 minutes. On the day prior to administration of compound, a single oral dose of vehicle (10% transcutol/20% Cremophor/70% water) was administered to all animals to establish baseline control data. The blood pressure lowering efficacy of compound (PO) or vehicle was evaluated following a single oral gavage. Data were collected as hourly averages, and changes in blood pressure were calculated by subtracting control baseline data on an hourly basis. Animals were maintained on normal diet with a 12 hour light-dark cycle.
Maximum peak decreases of systolic blood pressure (SBP) in SHR at a particular P.O. dose (mpk milligrams per kilogram) for the following representative compounds are provided. Category A=SBP in SHRs <20 mmHg; Category B=SBP in SHRs 20-40 mmHg; Category C=SBP in SHRs >40 mmHg.

In test [2] the target is T1, sGC α1/β1 heterodimer (Homo sapiens, UniProt Q02108+Q02153).
T1 construct: expressed in transfected cells
T1 sequence (Q02108 1-690): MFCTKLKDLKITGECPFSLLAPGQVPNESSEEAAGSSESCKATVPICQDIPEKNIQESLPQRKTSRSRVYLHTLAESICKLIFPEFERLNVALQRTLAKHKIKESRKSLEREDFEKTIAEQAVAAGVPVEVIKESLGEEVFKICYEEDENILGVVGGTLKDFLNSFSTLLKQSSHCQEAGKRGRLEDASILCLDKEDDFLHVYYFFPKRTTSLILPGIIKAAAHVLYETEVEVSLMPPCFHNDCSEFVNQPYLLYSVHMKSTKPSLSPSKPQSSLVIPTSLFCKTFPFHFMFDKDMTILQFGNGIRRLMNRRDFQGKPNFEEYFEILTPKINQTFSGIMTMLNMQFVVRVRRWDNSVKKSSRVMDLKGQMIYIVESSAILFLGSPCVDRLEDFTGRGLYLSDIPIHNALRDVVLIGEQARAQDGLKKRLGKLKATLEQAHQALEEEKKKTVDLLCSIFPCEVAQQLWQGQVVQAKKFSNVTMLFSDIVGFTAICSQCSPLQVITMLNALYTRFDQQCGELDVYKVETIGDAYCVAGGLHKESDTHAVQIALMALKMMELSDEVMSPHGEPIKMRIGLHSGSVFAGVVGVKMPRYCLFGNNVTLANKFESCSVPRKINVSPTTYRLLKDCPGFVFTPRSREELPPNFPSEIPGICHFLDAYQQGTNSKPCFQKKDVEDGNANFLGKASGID
T1 sequence (Q02153 1-619): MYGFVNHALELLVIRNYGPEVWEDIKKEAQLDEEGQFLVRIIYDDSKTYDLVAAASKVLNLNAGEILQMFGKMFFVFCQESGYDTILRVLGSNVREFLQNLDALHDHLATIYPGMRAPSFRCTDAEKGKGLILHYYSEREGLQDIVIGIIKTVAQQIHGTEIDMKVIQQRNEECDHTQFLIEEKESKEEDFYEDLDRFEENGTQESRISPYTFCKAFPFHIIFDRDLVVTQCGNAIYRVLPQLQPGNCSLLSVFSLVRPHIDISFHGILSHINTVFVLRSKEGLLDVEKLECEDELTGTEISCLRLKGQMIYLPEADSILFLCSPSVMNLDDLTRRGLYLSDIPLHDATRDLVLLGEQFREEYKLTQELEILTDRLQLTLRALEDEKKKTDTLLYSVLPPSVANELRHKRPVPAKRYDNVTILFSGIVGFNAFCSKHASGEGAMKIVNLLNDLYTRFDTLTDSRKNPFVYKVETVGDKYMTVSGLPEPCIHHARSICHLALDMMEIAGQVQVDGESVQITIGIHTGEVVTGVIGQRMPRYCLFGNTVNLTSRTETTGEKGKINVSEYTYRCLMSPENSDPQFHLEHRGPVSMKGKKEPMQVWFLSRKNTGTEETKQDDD
Kind of test: Cell-Based sGC Functional Assay (CASA Assay), cGMP generation in CHO-K1/sGC cells.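 Also: reference Compound A is a published heme-dependent sGC activator.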 The note with it: maximum cGMP production of Compound A set to 100% activation, read-out: % Act. (percent activation relative to Compound A). A digest of the protocol:
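CHO-K1 cells stably expressing human sGC α1/β1, 4×10^5/mL in EBSS with 5 mM MgCl2, 10 mM HEPES, 0.05% BSA, 0.5 mM IBMX, 2.5% DMSO; compounds 1 h at 37 °C ± 1 μM DETA-NO. cGMP by HTRF, expressed as % of reference Compound A maximum; IP and max fold induction from 4P fit.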

For the compound `Cc1ccc(C2(C3CC3)C(=O)Nc3nc(-c4cn5ncnc5c(CCC(F)(F)C(F)(F)F)n4)nc(N)c32)nc1` (racemic) [Example 17B, 4-amino-5-cyclopropyl-5-(5-methylpyridin-2-yl)-2-(8-(3,3,4,4,4-pentafluorobutyl)-[1,2,4]triazolo[1,5-a]pyrazin-6-yl)-5H-pyrrolo[2,3-d]pyrimidin-6(7H)-one], in test [1], the “Maximum peak decrease of systolic blood pressure (SBP) in SHR, Cat.” value is given as “A (Category A=SBP in SHRs <20 mmHg)”. The Emax in test [2] is 119%.
Regarding `O=C1Nc2nc(-c3cn4ncnc4c(CCCC(F)(F)F)n3)nc(O)c2C1(c1ccc(F)cn1)C1CC1` (stereo not shown) [Example 150A, 5-cyclopropyl-5-(5-fluoropyridin-2-yl)-4-hydroxy-2-(8-(4,4,4-trifluorobutyl)-[1,2,4]triazolo[1,5-a]pyrazin-6-yl)-5,7-dihydro-6H-pyrrolo[2,3-d]pyrimidin-6-one], the Emax in test [2] was 74%.
Still for that read-out and setting: next, `CC1(c2ccc(Cl)c(F)c2)C(=O)Nc2nc(-c3cn4ncnc4c(CCC(F)(F)F)n3)nc(O)c21` (stereo not shown) [Example 153B, 5-(4-chloro-3-fluorophenyl)-4-hydroxy-5-methyl-2-(8-(3,3,3-trifluoropropyl)-[1,2,4]triazolo[1,5-a]pyrazin-6-yl)-5H-pyrrolo[2,3-d]pyrimidin-6(7H)-one]: 104%; `CCCCc1nc(-c2nc(O)c3c(n2)NC(=O)C3(C)c2ccc(Cl)cc2)cn2ncnc12` (stereo not shown) [Example 157A, 2-(8-butyl-[1,2,4]triazolo[1,5-a]pyrazin-6-yl)-5-(4-chlorophenyl)-4-hydroxy-5-methyl-5H-pyrrolo[2,3-d]pyrimidin-6(7H)-one]: 161%; `CCCCc1nc(-c2nc(O)c3c(n2)NC(=O)C3(C)c2ccc(C(F)(F)F)cn2)cn2ncnc12` (stereo not shown) [Example 159B, 2-(8-butyl-[1,2,4]triazolo[1,5-a]pyrazin-6-yl)-4-hydroxy-5-methyl-5-(5-(trifluoromethyl)pyridin-2-yl)-5H-pyrrolo[2,3-d]pyrimidin-6(7H)-one]: 73%.
Same read-out and setting: next, `CCCCc1nc(-c2nc(O)c3c(n2)NC(=O)C3(C)c2ccc(C)cn2)cn2ncnc12` (stereo not shown) [Example 161B, 2-(8-butyl-[1,2,4]triazolo[1,5-a]pyrazin-6-yl)-4-hydroxy-5-methyl-5-(5-methylpyridin-2-yl)-5H-pyrrolo[2,3-d]pyrimidin-6(7H)-one]: 95%; `C[C@@]1(c2ccc(F)cc2)C(=O)Nc2nc(-c3cn4ncnc4c(Cc4ccc(F)cc4)n3)nc(O)c21` [Example 162B, (S)-2-(8-(4-fluorobenzyl)-[1,2,4]triazolo[1,5-a]pyrazin-6-yl)-5-(4-fluorophenyl)-4-hydroxy-5-methyl-5H-pyrrolo[2,3-d]pyrimidin-6(7H)-one]: 100%; `CC(C)Cc1nc(-c2nc(O)c3c(n2)NC(=O)[C@@]3(C)c2ccc(F)cc2)cn2ncnc12` [Example 163A, (S)-5-(4-fluorophenyl)-4-hydroxy-2-(8-isobutyl-[1,2,4]triazolo[1,5-a]pyrazin-6-yl)-5-methyl-5,7-dihydro-6H-pyrrolo[2,3-d]pyrimidin-6-one]: 109%.
With `CCCc1nc(-c2nc(O)c3c(n2)NC(=O)C3(c2ccc(F)c(F)c2)C2CC2)cn2ncnc12` (stereo not shown) [Example 167A, 5-cyclopropyl-5-(3,4-difluorophenyl)-4-hydroxy-2-(8-propyl-[1,2,4]triazolo[1,5-a]pyrazin-6-yl)-5H-pyrrolo[2,3-d]pyrimidin-6(7H)-one], the Emax in test [2] was found to be 70%.
For the compound `CCCc1nc(-c2nc(O)c3c(n2)NC(=O)C3(C)c2ccc(Cl)cc2)cn2nc(C)nc12` (stereo not shown) [Example 168A, 5-(4-chlorophenyl)-4-hydroxy-5-methyl-2-(2-methyl-8-propyl-[1,2,4]triazolo[1,5-a]pyrazin-6-yl)-5H-pyrrolo[2,3-d]pyrimidin-6(7H)-one], the Emax in test [2] came to 77%.
As to `CC1(c2ccc(F)c(F)c2)C(=O)Nc2nc(-c3cn4ncnc4c(CCC(F)(F)C(F)(F)F)n3)nc(O)c21` (stereo not shown) [Example 169B, 5-(3,4-Difluorophenyl)-4-hydroxy-5-methyl-2-(8-(3,3,4,4,4-pentafluorobutyl)-[1,2,4]triazolo[1,5-a]pyrazin-6-yl)-5,7-dihydro-6H-pyrrolo[2,3-d]pyrimidin-6-one], the Emax in test [2] was determined as 116%.
Same read-out and setting: next, `CC1(c2ccccc2F)C(=O)Nc2nc(-c3cn4ncnc4c(CCC(F)(F)C(F)(F)F)n3)nc(O)c21` (stereo not shown) [Example 170A, 5-(2-Fluorophenyl)-4-hydroxy-5-methyl-2-(8-(3,3,4,4,4-pentafluorobutyl)-[1,2,4]triazolo[1,5-a]pyrazin-6-yl)-5,7-dihydro-6H-pyrrolo[2,3-d]pyrimidin-6-one]: 125%.
Take `CCCCc1nc(-c2nc(O)c3c(n2)NC(=O)C3(C)c2cccc(F)c2)cn2ncnc12` (stereo not shown) [Example 171A, 2-(8-Butyl-[1,2,4]triazolo[1,5-a]pyrazin-6-yl)-5-(3-fluorophenyl)-4-hydroxy-5-methyl-5,7-dihydro-6H-pyrrolo[2,3-d]pyrimidin-6-one]: the Emax in test [2] stood at 90%.
For `C[C@@]1(c2ccc(F)cc2)C(=O)Nc2nc(-c3cn4ncnc4c(CCC(F)(F)C(F)(F)F)n3)ncc21` [Example 172A, (S)-5-(4-fluorophenyl)-5-methyl-2-(8-(3,3,4,4,4-pentafluorobutyl)-[1,2,4]triazolo[1,5-a]pyrazin-6-yl)-5,7-dihydro-6H-pyrrolo[2,3-d]pyrimidin-6-one], in test [2], the Emax amounted to 122%.
As for `C[C@@]1(c2ccc(F)cc2)C(=O)Nc2nc(-c3cn4ncnc4c(CCC(F)(F)F)n3)ncc21` [Example 174A, (S)-5-(4-fluorophenyl)-5-methyl-2-(8-(3,3,3-trifluoropropyl)-[1,2,4]triazolo[1,5-a]pyrazin-6-yl)-5,7-dihydro-6H-pyrrolo[2,3-d]pyrimidin-6-one], in test [2], the Emax stood at 133%.
On the same count and under the same terms, next, `CC1(c2ccc(Cl)cn2)C(=O)Nc2nc(-c3cn4ncnc4c(CCC(F)(F)C(F)(F)F)n3)ncc21` (stereo not shown) [Example 175A, 5-(5-chloropyridin-2-yl)-5-methyl-2-(8-(3,3,4,4,4-pentafluorobutyl)-[1,2,4]triazolo[1,5-a]pyrazin-6-yl)-5H-pyrrolo[2,3-d]pyrimidin-6(7H)-one]: 115%.
Take `CC1(c2ccc(F)cn2)C(=O)Nc2nc(-c3cn4ncnc4c(CCCC(F)(F)F)n3)ncc21` (stereo not shown) [Example 176B, 5-(5-fluoropyridin-2-yl)-5-methyl-2-(8-(4,4,4-trifluorobutyl)-[1,2,4]triazolo[1,5-a]pyrazin-6-yl)-5H-pyrrolo[2,3-d]pyrimidin-6(7H)-one]: the Emax in test [2] was determined as 166%.
For the compound `CC1(c2ccc(C(F)F)cn2)C(=O)Nc2nc(-c3cn4ncnc4c(CCCC(F)(F)F)n3)nc(O)c21` (stereo not shown) [Example 181B, 4-hydroxy-5-(5-(difluoromethyl)pyridin-2-yl)-5-methyl-2-(8-(4,4,4-trifluorobutyl)-[1,2,4]triazolo[1,5-a]pyrazin-6-yl)-5H-pyrrolo[2,3-d]pyrimidin-6(7H)-one], in test [2], the Emax stood at 55%.
